Data from ChEMBL document CHEMBL1127231, “The isolation and in vivo Potent Antitumor activity of clerodane diterpenoid from the oleoresin of the brazilian medicinal plant, copaifera langsdorfi desfon” (1994).

Assays:
Type in all cases: functional
[1] = system: Mus musculus; test: Antitumor activity was evaluated by the change in life span (day) against IMC carcinoma in mice at a dose of 20.7 mg/kg
[2] = system: Mus musculus; test: Antitumor activity was evaluated by the change in body weight against IMC carcinoma in mice at a dose of 20.7 mg/kg
[3] = system: Mus musculus; test: Antitumor activity was evaluated by the increase in life span (I.L.S) against IMC carcinoma in mice at a dose of 20.7 mg/kg
[4] = system: Mus musculus; test: Antitumor activity was evaluated by the change in life span (day) against IMC carcinoma in mice at a dose of 0.27 mg/kg
[5] = system: Mus musculus; test: Antitumor activity was evaluated by the change in body weight against IMC carcinoma in mice at a dose of 0.27 mg/kg
[6] = system: Mus musculus; test: Antitumor activity was evaluated by the increase in life span (I.L.S) against IMC carcinoma in mice at a dose of 0.27 mg/kg
[7] = system: Mus musculus; test: Antitumor activity was evaluated by the increase in life span (I.L.S) against IMC carcinoma in mice at a dose of 9.0 mg/kg
[8] = system: Mus musculus; test: Antitumor activity was evaluated by the change in life span (day) against IMC carcinoma in mice at a dose of 9.0 mg/kg
[9] = system: Mus musculus; test: Antitumor activity was evaluated by the change in body weight against IMC carcinoma in mice at a dose of 9.0 mg/kg
[10] = system: Mus musculus; test: Antitumor activity was evaluated by the increase in life span (I.L.S) against IMC carcinoma in mice at a dose of 77.6 mg/kg
[11] = system: Mus musculus; test: Antitumor activity was evaluated by the change in life span (day) against IMC carcinoma in mice at a dose of 77.6 mg/kg
[12] = system: Mus musculus; test: Antitumor activity was evaluated by the change in body weight against IMC carcinoma in mice at a dose of 77.6 mg/kg
[13] = system: Mus musculus; test: Antitumor activity was evaluated by the change in life span (day) against IMC carcinoma in mice at a dose of 41.1 mg/kg
[14] = system: Mus musculus; test: Antitumor activity was evaluated by the change in body weight against IMC carcinoma in mice at a dose of 41.1 mg/kg
[15] = system: Mus musculus; test: Antitumor activity was evaluated by the increase in life span (I.L.S) against IMC carcinoma in mice at a dose of 41.1 mg/kg
[16] = system: Mus musculus; test: Antitumor activity was evaluated by the increase in life span (I.L.S) against IMC carcinoma in mice at a dose of 30.0 mg/kg
[17] = system: Mus musculus; test: Antitumor activity was evaluated by the change in life span (day) against IMC carcinoma in mice at a dose of 30.0 mg/kg
[18] = system: Mus musculus; test: Antitumor activity was evaluated by the change in body weight against IMC carcinoma in mice at a dose of 30.0 mg/kg
[19] = system: Mus musculus; test: Antitumor activity was evaluated by the change in life span (day) against IMC carcinoma in mice at a dose of 1.8 mg/kg
[20] = system: Mus musculus; test: Antitumor activity was evaluated by the increase in life span (I.L.S) against IMC carcinoma in mice at a dose of 1.8 mg/kg
[21] = system: Mus musculus; test: Antitumor activity was evaluated by the change in body weight against IMC carcinoma in mice at a dose of 1.8 mg/kg

Question: Which results are given for `C=C1CC[C@@H]2C(C)(C)CCC[C@@]2(C)[C@@H]1CC/C(C)=C/C(=O)O` [COPALIC ACID]?
Answer: Life span [1]: 14 days; Change in body weight [2]: 1.5 g; ILS at 20.7 mg/kg [3]: 10%

Question: For `C=C1CCC[C@@H]2[C@](C)(CC/C(C)=C/CO)[C@@H](C)CC[C@]12C`, which Life span [4] is on record?
Answer: Its Life span is 11.7 days.

Question: And the “Change in body weight” value [5]?
Answer: Its value is 1.9 g.

Question: And the ILS at 0.27 mg/kg [6]?
Answer: The ILS at 0.27 mg/kg was -8%.

Question: What does the source list for `C=C1CC[C@H]2C(C)(C)CCC[C@]2(C)[C@H]1CC/C(C)=C/CO`?
Answer: ILS at 9 mg/kg [7]: 2%; Life span [8]: 13 days; Change in body weight [9]: 1.4 g

Question: How did the ILS at 77.6 mg/kg [10] turn out when `C[C@H]1CC[C@]2(C)C(C(=O)O)=CCC[C@H]2[C@]1(C)CCc1ccoc1` was run?
Answer: Its ILS at 77.6 mg/kg is 17%.

Question: What about the Life span [11] of the same compound?
Answer: The Life span was 14.8 days.

Question: And the “Change in body weight” value [12]?
Answer: The value was 1.6 g.

Question: `CC1=CCC[C@@H]2[C@@](C)(CC/C(C)=C/CO)[C@H](C)CC[C@@]12C` was tested. Which Life span [13] did it give?
Answer: The Life span was 25.2 days.

Question: And the “Change in body weight” value [14]?
Answer: The value was 0.1 g.

Question: And the ILS at 41.1 mg/kg [15]?
Answer: Its ILS at 41.1 mg/kg is 98%.

Question: How did the ILS at 30 mg/kg [16] turn out when `O=c1[nH]cc(F)c(=O)[nH]1` [FLUOROURACIL] was run?
Answer: Its ILS at 30 mg/kg is 46%.

Question: And the Life span [17]?
Answer: The Life span was 18.5 days.

Question: And the “Change in body weight” value [18]?
Answer: Its value is -1.8 g.

Question: Which results are given for `CC1=CCC[C@@H]2[C@@](C)(CC/C(C)=C/CO)[C@H](C)CC[C@]12C`?
Answer: Life span [19]: 12.3 days; ILS at 1.8 mg/kg [20]: -3%; Change in body weight [21]: 1.4 g
